{
  "source": "paper PMC7690448",
  "about": "“Generation of a hTERT-Immortalized Human Sertoli Cell Model to Study Transporter Dynamics at the Blood-Testis Barrier” (Pharmaceutics, 2020)",
  "target": "T1, ENT1 (Homo sapiens, UniProt Q99808)",
  "T1 construct": "gene SLC29A1",
  "T1 sequence (Q99808 2-456)": "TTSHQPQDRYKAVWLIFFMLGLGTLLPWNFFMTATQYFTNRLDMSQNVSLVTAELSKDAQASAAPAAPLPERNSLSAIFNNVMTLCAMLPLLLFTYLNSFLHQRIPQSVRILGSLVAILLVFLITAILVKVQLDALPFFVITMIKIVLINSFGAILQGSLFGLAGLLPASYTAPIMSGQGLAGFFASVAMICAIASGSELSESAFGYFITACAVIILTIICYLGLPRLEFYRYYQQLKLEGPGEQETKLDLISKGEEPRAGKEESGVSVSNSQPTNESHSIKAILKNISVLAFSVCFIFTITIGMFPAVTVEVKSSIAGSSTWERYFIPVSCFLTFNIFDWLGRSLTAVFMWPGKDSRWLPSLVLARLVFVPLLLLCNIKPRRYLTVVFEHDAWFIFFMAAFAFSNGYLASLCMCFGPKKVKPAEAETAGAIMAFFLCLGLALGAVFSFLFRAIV",
  "experiment": "NBMPR-sensitive [3H] uridine uptake in primary human Sertoli cells and hT-SerCs (endogenous ENT1)",
  "assay_type": "cell-based",
  "data": [
    {"smiles": "O=c1ccn([C@@H]2O[C@H](CO)[C@@H](O)[C@H]2O)c(=O)[nH]1", "note": "[uridine]", "values": [
      {"measurement": "NBMPR-sensitive [3H] uridine uptake in primary human Sertoli cells and hT-SerCs", "result": "These data suggest that uridine uptake into both cells is primarily mediated by ENT1 with minimal contribution by ENT2."}
    ]}
  ]
}
